Laboratory results published in US20040181130A1, “Methods for diagnosing skin lesions” (3M Innovative Properties Company, priority 2003, published 2004).

Tested on: AK lesions
Assay: Increase in AK lesion count during 16-week topical treatment of volunteers with AK lesions
Assay type: in vivo, human
Source text: Volunteers having from four to eight clinically diagnosed AK lesions located within a 25 cm^2 treatment area were enrolled in a study. The study consisted of a prestudy period, a 16-week treatment period, and an 8-week post treatment period. Enrolled participants were randomized to receive either 5% imiquimod cream (ALDARA, 3M Pharmaceuticals, St. Paul, Minn.) or placebo cream containing no biologically active ingredient.
Subjects were instructed to topically administer cream from a single-use sachet. Sachets that contained imiquimod contained 250 mg of cream. One group of subjects applied cream two days per week for sixteen weeks, with dosing days occurring a minimum of three days apart. A second group of subjects applied cream three days per week for sixteen weeks, with dosing days occurring at least two days apart.
At a pretreatment visit, a baseline AK lesion count was established for each subject. Updated AK lesion counts were calculated at visits after four weeks, eight weeks, and sixteen weeks of treatment. For each individual, “new” AK lesions were calculated as the difference between the updated AK count and the baseline AK count. Thus, subclinical AK lesions may become apparent after treatment with ALDARA cream.

[1] = 5% cream topical 2x/week, Any visit, N=215
[2] = 5% cream topical 2x/week, Week 4, N=215
[3] = 5% cream topical 2x/week, Week 8, N=215
[4] = 5% cream topical 2x/week, Week 16, N=215
[5] = 5% cream topical 3x/week, Any visit, N=242
[6] = 5% cream topical 3x/week, Week 4, N=242
[7] = 5% cream topical 3x/week, Week 8, N=242
[8] = 5% cream topical 3x/week, Week 16, N=242

## CC(C)Cn1cnc2c(N)nc3ccccc3c21 [Imiquimod, imiquimod]
[1]
  % of Subjects with an Increase in AK Lesion Count: 47.9%
  Number of Subjects with an Increase in AK Lesion Count: 103
[2]
  % of Subjects with an Increase in AK Lesion Count: 36.7%
  Number of Subjects with an Increase in AK Lesion Count: 79
[3]
  % of Subjects with an Increase in AK Lesion Count: 28.4%
  Number of Subjects with an Increase in AK Lesion Count: 61
[4]
  % of Subjects with an Increase in AK Lesion Count: 9.3%
  Number of Subjects with an Increase in AK Lesion Count: 20
[5]
  % of Subjects with an Increase in AK Lesion Count: 42.6%
  Number of Subjects with an Increase in AK Lesion Count: 103
[6]
  % of Subjects with an Increase in AK Lesion Count: 33.1%
  Number of Subjects with an Increase in AK Lesion Count: 80
[7]
  % of Subjects with an Increase in AK Lesion Count: 16.5%
  Number of Subjects with an Increase in AK Lesion Count: 40
[8]
  % of Subjects with an Increase in AK Lesion Count: 6.2%
  Number of Subjects with an Increase in AK Lesion Count: 15
